The results in this text go back to patent US8344008B2 (Janssen Pharmaceutica NV, priority 2007, dated 2013).

One may read the Ki as the equilibrium dissociation constant of an inhibitor or competing ligand from its target.

The assay addresses T1, recombinant human LTA4 hydrolase (rhLTA4H) (Homo sapiens, UniProt P09960).
T1 construct: made in house; host or cells: Spodoptera frugiperda (Sf-9) cells, baculovirus (pFastBac1)
T1 sequence (P09960 1-611): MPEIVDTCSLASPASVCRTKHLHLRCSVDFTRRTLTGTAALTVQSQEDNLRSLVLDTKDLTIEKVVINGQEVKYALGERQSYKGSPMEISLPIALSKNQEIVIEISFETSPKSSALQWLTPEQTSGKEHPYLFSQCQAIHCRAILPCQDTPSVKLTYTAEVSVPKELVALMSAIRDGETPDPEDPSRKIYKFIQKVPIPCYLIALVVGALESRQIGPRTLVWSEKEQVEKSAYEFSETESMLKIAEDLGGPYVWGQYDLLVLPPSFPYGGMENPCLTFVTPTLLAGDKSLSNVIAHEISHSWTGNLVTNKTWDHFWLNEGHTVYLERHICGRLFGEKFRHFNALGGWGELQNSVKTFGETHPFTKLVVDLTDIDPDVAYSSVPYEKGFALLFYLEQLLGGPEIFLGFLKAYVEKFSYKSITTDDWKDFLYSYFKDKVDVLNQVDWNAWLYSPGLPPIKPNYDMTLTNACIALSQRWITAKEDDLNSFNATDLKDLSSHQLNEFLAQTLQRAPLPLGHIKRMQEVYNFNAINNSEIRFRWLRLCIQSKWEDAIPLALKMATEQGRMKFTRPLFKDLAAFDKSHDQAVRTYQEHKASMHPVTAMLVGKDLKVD
Kind of assay: Recombinant Human LTA4 Hydrolase Assay for LTA4 Hydrolase Inhibitor Activity. Type of assay: biochemical. The note with it: average of results obtained; LTB4 quantified by enzyme-linked immunoassay. As for the experimental part:
Biological Methods: Recombinant Human LTA4 Hydrolase Assay for LTA4 Hydrolase Inhibitor Activity
Compounds of the present invention were tested for LTA4 hydrolase inhibitor activity against recombinant human LTA4 hydrolase (rhLTA4H). Vectors were prepared and used to express rhLTA4H essentially as follows: LTA4 hydrolase encoding DNA was amplified by polymerase chain reaction (PCR) using a human placental cDNA library as a template. Oligonucleotide primers for the PCR reaction were based on the 5′-end, and the complement of the 3′-end, of the published nucleotide sequence for the coding region of the human LTA4 hydrolase gene (C. D. Funk et al., Proc. Natl. Acad. Sci. USA 1987, 84:6677-6681). The amplified 1.9 kb DNA fragment encoding LTA4 hydrolase was isolated and cloned into the pFastBac1 vector (Invitrogen). Recombinant baculovirus was generated as described by the manufacturer, and used to infect Spodoptera frugiperda (Sf-9) cells. Recombinant LTA4 hydrolase enzyme was purified from the infected Sf-9 cells essentially as described by J. K. Gierse et al. (Protein Expression and Purification 1993, 4:358-366). The purified enzyme solution was adjusted to contain 0.29 mg/mL LTA4 hydrolase, 50 mM Tris (pH 8.0), 150 mM NaCl, 5 mM dithiothreitol, 50% glycerol, and EDTA-free Complete protease inhibitor cocktail (Roche). The specific activity of the enzyme was about 3.8 μmol/min/mg.
LTA4 substrate was prepared from the methyl ester of LTA4 (Cayman Chemical) by treatment with 67 equiv of NaOH under nitrogen at rt for 40 min. The LTA4 substrate in its free acid form was kept frozen at −80° C. until needed. Each compound was diluted to different concentrations in assay buffer (0.1 M potassium phosphate (pH 7.4), 5 mg/mL fatty acid free BSA) containing 10% DMSO. A 25-uL aliquot of each compound dilution was incubated for 10 min at rt with an equal volume of assay buffer containing 36 ng of recombinant human LTA4H. The solution was then adjusted to 200 μL with assay buffer. LTA4 (free acid) was thawed and diluted in assay buffer to a concentration of 357 ng/mL, and 25 μL (9 ng) of LTA4 substrate was added to the reaction mixture (total volume=225 μL) at time zero. Each reaction was carried out at rt for 10 min. The reaction was stopped by diluting 10 μL of the reaction mixture with 200 μL of assay buffer. LTB4 was quantified in the diluted sample by a commercially available enzyme-linked immunoassay (Cayman Chemical Co.), as recommended by the manufacturer. Positive controls, under essentially identical conditions but without addition of an inhibitor compound, and negative controls, containing all assay components except enzyme, were routinely run in each experiment. […]
Results for the compounds tested in this assay are presented in Table 1 as an average of results obtained.
For `CC(=O)N1CC2CN(Cc3ccc(Cc4nc5ccccc5s4)cc3)CC2C1` (stereo not shown) [Example 149, 1-[5-(4-Benzothiazol-2-ylmethyl-benzyl)-hexahydro-pyrrolo[3,4-c]pyrrol-2-yl]-ethanone], the inhibitory constant (Ki) was found to be 0.079 µM.
To `CS(=O)(=O)N1CC2CN(Cc3ccc(Oc4nc5ccccc5s4)cc3)CC2C1` (stereo not shown) [Example 129, 2-[4-(5-Methanesulfonyl-hexahydro-pyrrolo[3,4-c]pyrrol-2-ylmethyl)-phenoxy]-benzothiazole] belongs 0.035 µM; to `CS(=O)(=O)N1[C@@H]2CC[C@H]1C[C@H](NCCc1ccc(Oc3nc4c(Cl)cccc4s3)cc1)C2` [Example 237, meso-exo-{2-[4-(4-Chloro-benzothiazol-2-yloxy)-phenyl]-ethyl}-(8-methanesulfonyl-8-aza-bicyclo[3.2.1]oct-3-yl)-amine], 0.244 µM.
To `CC(=O)N[C@H]1C[C@H]2CC[C@@H](C1)N2Cc1ccc(Oc2nc3ccccc3s2)cc1` [Example 52, meso-endo-N-{8-[4-(Benzothiazol-2-yloxy)-benzyl]-8-aza-bicyclo[3.2.1]oct-3-yl}-acetamide] belongs 0.002 µM.
To `CS(=O)(=O)N1C[C@@H]2C[C@H]1CN2CCc1ccc(Oc2nc3ccc(Cl)cc3s2)cc1` [Example 238, (S,S)-6-Chloro-2-{4-[2-(5-methanesulfonyl-2,5-diaza-bicyclo[2.2.1]hept-2-yl)-ethyl]-phenoxy}-benzothiazole] belongs 0.651 µM.
`NC(=O)N[C@H]1C[C@H]2CC[C@@H](C1)N2CCOc1ccc(Oc2nc3cc(F)ccc3s2)cc1` [Example 219, meso-endo-(8-{2-[4-(5-Fluoro-benzothiazol-2-yloxy)-phenoxy]-ethyl}-8-aza-bicyclo[3.2.1]oct-3-yl)-urea]: the inhibition constant (Ki) turned out to be 0.015 µM.
To `CC(=O)N1[C@@H]2CC[C@H]1C[C@@H](NCCc1ccc(Oc3nc4ccc(Cl)cc4s3)cc1)C2` [Example 224, meso-endo-1-(3-{2-[4-(6-Chloro-benzothiazol-2-yloxy)-phenyl]-ethylamino}-8-aza-bicyclo[3.2.1]oct-8-yl)-ethanone] belongs 0.033 µM; to `CC(=O)N[C@H]1C[C@H]2CC[C@@H](C1)N2Cc1ccc(Oc2nc3c(F)cccc3s2)cc1` [Example 68, meso-endo-N-{8-[4-(4-Fluoro-benzothiazol-2-yloxy)-benzyl]-8-aza-bicyclo[3.2.1]oct-3-yl}-acetamide], 0.002 µM.
Regarding `CC(=O)N1C[C@@H]2C[C@H]1CN2Cc1cccc(Oc2nc3ccccc3s2)c1` [Example 2, (S,S)-1-{5-[3-(Benzothiazol-2-yloxy)-benzyl]-2,5-diaza-bicyclo[2.2.1]hept-2-yl}-ethanone], the Ki came to 0.508 µM.
To `O=C([C@H]1CCOC1)N1C[C@@H]2C[C@H]1CN2Cc1ccc(Oc2nc3ccccc3s2)cc1` [Example 13, (S,S,S)-{5-[4-(Benzothiazol-2-yloxy)-benzyl]-2,5-diaza-bicyclo[2.2.1]hept-2-yl}-(tetrahydro-furan-3-yl)-methanone] belongs 0.034 µM; to “meso-endo-[4-(6-Chloro-benzothiazol-2-yloxy)-benzyl]-(8-methanesulfonyl-8-aza-bicyclo[3.2.1]oct-3-yl)-amine [Example 228]”, 1.59 µM.
For `NC(=O)N[C@@H]1C[C@H]2CC[C@@H](C1)N2CCc1ccc(Oc2nc3cc(Cl)ccc3s2)cc1` [Example 202, meso-exo-(8-{2-[4-(5-Chloro-benzothiazol-2-yloxy)-phenyl]-ethyl}-8-aza-bicyclo[3.2.1]oct-3-yl)-urea], the Ki was 0.127 µM.
Consider `CC(=O)N(C)[C@H]1C[C@H]2CC[C@@H](C1)N2Cc1ccc(Oc2nc3ccccc3s2)cc1` [Example 70, meso-endo-N-{8-[4-(Benzothiazol-2-yloxy)-benzyl]-8-aza-bicyclo[3.2.1]oct-3-yl}-N-methyl-acetamide], for which the Ki amounted to 0.004 µM.
Consider `Cc1ccc2nc(Oc3ccc(CCN[C@@H]4C[C@H]5CC[C@@H](C4)N5C(N)=O)cc3)sc2c1` [Example 173, meso-exo-3-{2-[4-(6-Methyl-benzothiazol-2-yloxy)-phenyl]-ethylamino}-8-aza-bicyclo[3.2.1]octane-8-carboxylic acid amide], for which the inhibitory constant (Ki) came out at 0.973 µM.
To `COC(=O)CN1CC2CN(Cc3ccc(Oc4nc5ccccc5s4)cc3)CC2C1` (stereo not shown) [Example 157, {5-[4-(Benzothiazol-2-yloxy)-benzyl]-hexahydro-pyrrolo[3,4-c]pyrrol-2-yl}-acetic acid methyl ester] belongs 0.057 µM.
Consider `NC(=O)N1C[C@@H]2C[C@H]1CN2Cc1ccc(Cc2nc3ccccc3s2)cc1` [Example 35, (S,S)-5-(4-Benzothiazol-2-ylmethyl-benzyl)-2,5-diaza-bicyclo[2.2.1]heptane-2-carboxylic acid amide], for which the Ki stood at 0.093 µM.
Take `CS(=O)(=O)N1CC2CCC(C1)N2CCc1ccc(Oc2nc3c(Cl)cccc3s2)cc1` [Example 281, meso-4-Chloro-2-{4-[2-(3-methanesulfonyl-3,8-diaza-bicyclo[3.2.1]oct-8-yl)-ethyl]-phenoxy}-benzothiazole]: the inhibition constant (Ki) was 2.04 µM.
As for `O=C(CC(F)(F)F)N1CC2CN(Cc3ccc(Oc4nc5ccccc5s4)cc3)CC2C1` (stereo not shown) [Example 113, 1-{5-[4-(Benzothiazol-2-yloxy)-benzyl]-hexahydro-pyrrolo[3,4-c]pyrrol-2-yl}-3,3,3-trifluoro-propan-1-one], the Ki came out at 0.1 µM.
To `CC(=O)N1C[C@@H]2C[C@H]1CN2Cc1ccc(Cc2nc3ccccc3s2)cc1` [Example 4, (S,S)-1-[5-(4-Benzothiazol-2-ylmethyl-benzyl)-2,5-diaza-bicyclo[2.2.1]hept-2-yl]-ethanone] belongs 0.163 µM; to `CC(=O)N1CC2CN(CCc3ccc(Oc4nc5ccc(C)cc5s4)cc3)CC2C1` (stereo not shown) [Example 148, 1-(5-{2-[4-(6-Methyl-benzothiazol-2-yloxy)-phenyl]-ethyl}-hexahydro-pyrrolo[3,4-c]pyrrol-2-yl)-ethanone], 0.229 µM; to `CC(=O)N1C[C@@H]2C[C@H]1CN2CCc1cccc(Oc2nc3ccccc3s2)c1` [Example 8, (S,S)-1-(5-{2-[3-(Benzothiazol-2-yloxy)-phenyl]-ethyl}-2,5-diaza-bicyclo[2.2.1]hept-2-yl)-ethanone], 0.206 µM.
`O=C(CO)N1CCC2CN(Cc3ccc(Oc4nc5ccccc5s4)cc3)CC2C1` (stereo not shown) [Example 116, 1-{2-[4-(Benzothiazol-2-yloxy)-benzyl]-octahydro-pyrrolo[3,4-c]pyridin-5-yl}-2-hydroxy-ethanone]: the inhibition constant Ki was determined as 0.013 µM.
As for `CC(=O)N1CC2CCC(C1)N2CCc1ccc(Oc2nc3ccc(Cl)cc3s2)cc1` [Example 250, meso-1-(8-{2-[4-(6-Chloro-benzothiazol-2-yloxy)-phenyl]-ethyl}-3,8-diaza-bicyclo[3.2.1]oct-3-yl)-ethanone], the figure is 0.232 µM; as for `O=C(c1cccs1)N1CC2CN(Cc3ccc(Oc4nc5ccccc5s4)cc3)CC2C1` (stereo not shown) [Example 107, {5-[4-(Benzothiazol-2-yloxy)-benzyl]-hexahydro-pyrrolo[3,4-c]pyrrol-2-yl}-thiophen-2-yl-methanone], 0.02 µM; as for `CS(=O)(=O)N[C@@H]1C[C@H]2CC[C@@H](C1)N2CCc1ccc(Oc2nc3c(Cl)cccc3s2)cc1` [Example 162, meso-exo-N-(8-{2-[4-(4-Chloro-benzothiazol-2-yloxy)-phenyl]-ethyl}-8-aza-bicyclo[3.2.1]oct-3-yl)-methanesulfonamide], 0.188 µM.
